Laboratory results published in patent US9926321B2, “Hsp90 inhibitors” (Sloan-Kettering Institute for Cancer Research, priority 2011, dated 2018).
pIC50: −log10 of the molar value.

Key:
hERG = biological target: T1, hERG (Homo sapiens, UniProt Q12809); test: hERG fluorescence polarization assay (Predictor hERG kit); type: binding; settings: Predictor hERG fluorescence polarization, displacement of tracer red, read after 4 hrs; read-out: hERG assay
T1 construct: purchased Invitrogen PV5365
Method: hERG Fluorescence Polarization Assay:
Following the manufacturer's protocol, the hERG assay was performed using Predictor hERG Fluorescence Polarization Assay kit (catalog no. PV5365) from Invitrogen. Briefly, FP measurements were performed on an Analyst GT instrument (Molecular Devices, Sunnyvale, Calif.). Measurements were taken in black 384-well plates (Corning #3677), where both the excitation and the emission occurred from the top of the well. The test compounds were dissolved in DMSO and added at several concentrations to the Predictor hERG FP assay buffer containing 4 nM Predictor hERG tracer red and 10 μL of Predictor hERG membrane in a final volume of 20 μL. Drugs were added to triplicate wells. E-4031 as positive control was included in each plate. Plates were then kept on a shaker at room temperature and polarization values were measured after 4 hrs. The inhibition concentration at which 50% of tracer red gets displaced was obtained by fitting the data using a nonlinear regression analysis as implemented in Prism 5.0 (GraphPad Software).

Hsp90 = Hsp90 binding assay (fluorescence polarization, cy3B-GM displacement), human cancer cell lysate; settings: fluorescence polarization, cy3B-GM displacement; the table does not say which lysate (SKBr3 or JNPL3)
Method: (§1) For the binding studies, fluorescence polarization (FP) assays w-re performed similarly as was previously reported [Du et al. (2007) “High-throughput screening fluorescence polarization assay for tumor-specific Hsp90” J. Biomol. Screen 12:915-924]. Briefly, FP measurements were performed on an Analyst GT instrument (Molecular Devices, Sunnyvale, Calif.). Measurements were taken in black 96-well microtiter plates (Corning #3650) where both the excitation and the emission occurred from the top of the well. A stock of 10 μM cy3B-GM was prepared in DMSO and diluted with HFB buffer (20 mM Hepes (K), pH 7.3, 50 mM KCl, 2 mM DTT, 5 mM MgCl2, 20 mM Na2MoO4, and 0.01% NP40 with 0.1 mg/mL BGG). The test compounds were dissolved in DMSO and added at several concentrations to the HFB assay buffer containing both 6 nM cy3B-GM and transgenic mouse brain lysate (6 μg JNPL3 lysate) or human cancer cell lysate (3 μg SKBr3 lysate) in a final volume of 100 μL. Drugs were added to triplicate wells. Free cy3B-GM (6 nM cy3B-GM), bound cy3B-GM (6 nM cy3B-GM+lysate, as indicated above) and buffer only containing wells (background) were included as controls in each plate. Plates were incubated on a shake at 4° C., and polarization values measured at 24 h. Percentage inhibition was calculated as follows: (% Control)=100−((mPc−mPf)/(mPb−mPf))×100, where mPc is the recorded mP from compound wells, mPf is the average recorded mP from cy3B-GM-only wells, and mPb is the average recorded mP from wells containing both cy3B-GM and lysate, and plotted against values of competitor concentrations. The inhibitor concentration at which 50% of bound cy3B-GM was displaced was obtained by fitting the data using a nonlinear regression analysis as implemented in Prism 4.0 (GraphPad Software).

Hsp90 (SKBr3 lysate) = test: as above; settings: lysate not given
Method: as §1

T1 sequence (Q12809 whole entry): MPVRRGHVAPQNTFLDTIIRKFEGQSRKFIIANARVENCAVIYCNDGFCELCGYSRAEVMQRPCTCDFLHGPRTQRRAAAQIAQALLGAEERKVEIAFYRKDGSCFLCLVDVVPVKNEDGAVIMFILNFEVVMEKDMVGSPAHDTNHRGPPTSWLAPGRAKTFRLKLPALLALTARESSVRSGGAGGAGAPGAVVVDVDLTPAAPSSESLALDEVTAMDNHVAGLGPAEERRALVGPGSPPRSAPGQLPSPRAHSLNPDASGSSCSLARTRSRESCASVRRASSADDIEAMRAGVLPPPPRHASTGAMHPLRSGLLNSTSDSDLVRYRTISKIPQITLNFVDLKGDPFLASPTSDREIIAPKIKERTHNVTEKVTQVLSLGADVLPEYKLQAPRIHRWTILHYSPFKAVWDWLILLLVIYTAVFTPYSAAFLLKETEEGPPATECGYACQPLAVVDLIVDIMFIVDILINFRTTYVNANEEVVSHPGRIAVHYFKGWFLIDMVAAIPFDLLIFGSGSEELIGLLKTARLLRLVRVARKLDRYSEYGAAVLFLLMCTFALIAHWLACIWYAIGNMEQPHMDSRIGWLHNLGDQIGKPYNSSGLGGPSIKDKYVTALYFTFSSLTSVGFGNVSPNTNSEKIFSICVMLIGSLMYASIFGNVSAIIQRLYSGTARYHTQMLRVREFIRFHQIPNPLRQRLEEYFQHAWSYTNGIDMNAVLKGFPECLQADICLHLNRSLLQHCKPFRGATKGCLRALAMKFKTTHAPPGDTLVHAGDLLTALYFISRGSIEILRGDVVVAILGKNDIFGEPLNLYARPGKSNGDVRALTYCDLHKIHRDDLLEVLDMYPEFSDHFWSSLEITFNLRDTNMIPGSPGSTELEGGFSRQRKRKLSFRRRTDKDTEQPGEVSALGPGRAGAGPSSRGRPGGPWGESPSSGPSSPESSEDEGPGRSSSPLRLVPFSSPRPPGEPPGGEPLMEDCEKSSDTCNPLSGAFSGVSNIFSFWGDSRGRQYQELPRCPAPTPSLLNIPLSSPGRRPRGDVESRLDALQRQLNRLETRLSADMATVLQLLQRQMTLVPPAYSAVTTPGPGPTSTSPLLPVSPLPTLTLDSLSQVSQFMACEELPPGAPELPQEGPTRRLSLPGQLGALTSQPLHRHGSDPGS

Row | Structure (SMILES) | pIC50 (Hsp90) | pIC50 (hERG) | Hsp90 binding affinity (in words, referring to Table 12) (Hsp90 (SKBr3 lysate))
1 | CN(C)c1cc2c(cc1Sc1nc3c(N)ncnc3n1CCCNC(=O)C(C)(C)C)OCO2 [Compound 1G-43, N-{3-[6-Amino-8-(6-dimethylamino-benzo[1,3]dioxol-5-ylsulfanyl)-purin-9-yl]-propyl}-2,2-dimethyl-propionamide] | 7.96 | < 4.00 | high level of binding affinity
2 | CN(C)c1cc2c(cc1Sc1nc3c(N)ncnc3n1CCCNC(=O)C1CC1)OCO2 [Compound 1G-45, Cyclopropanecarboxylic acid {3-[6-amino-8-(6-dimethylamino-benzo[1,3]dioxol-5-ylsulfanyl)-purin-9-yl]-propyl}-amide] | 7.82 | 4.12 | high level of binding affinity
3 | CC(C)(C)[S+]([O-])NCCCn1c(Cc2cc3c(cc2I)OCO3)nc2c(N)nc(F)nc21 (stereo not drawn) [Compound 4A-26, N-(3-(6-amino-2-fluoro-8-((6-iodobenzo[d][1,3]dioxol-5-yl)methyl)-9H-purin-9-yl)propyl)-2-methylpropane-2-sulfinamide] | 7.58 | < 4.00 | high level of binding affinity

More lines, main results first:

Row | pIC50 (Hsp90) | Structure (SMILES) | pIC50 (hERG) | Hsp90 binding affinity (in words, referring to Table 12) (Hsp90 (SKBr3 lysate))
4 | 7.62 | Nc1nc(F)nc2c1nc(Cc1cc3c(cc1I)OCO3)n2CCCNS(=O)(=O)C1CC1 [Compound 4A-28, N-(3-(6-amino-2-fluoro-8-((6-iodobenzo[d][1,3]dioxol-5-yl)methyl)-9H-purin-9-yl)propyl)cyclopropane-sulfonamide] | < 4.00 | high level of binding affinity
5 | 7.48 | CC(C)(C)C(=O)NCCCn1c(Cc2cc3c(cc2I)OCO3)nc2c(N)nc(F)nc21 [Compound 4A-43, N-{3-[6-Amino-2-fluoro-8-(6-iodo-benzo[1,3]dioxol-5-ylmethyl)-purin-9-yl]-propyl}-2,2-dimethyl-propionamide] | < 4.00 | high level of binding affinity
6 | 7.70 | Nc1nc(F)nc2c1nc(Cc1cc3c(cc1I)OCO3)n2CCCNC(=O)C1CC1 [Compound 4A-45, Cyclopropanecarboxylic acid {3-[6-amino-2-fluoro-8-(6-iodo-benzo[1,3]dioxol-5-ylmethyl)-purin-9-yl]-propyl}-amide] | < 4.00 | high level of binding affinity
